Patent publication US7868024B2, “Derivatives of N-(heteroaryl)-1-heteroaryl-1H-indole-2-carboxamides, preparation thereof and therapeutic use thereof” (Sanofi-Aventis, priority 2007, dated 2011)

molecular target: T1, TRPV1 receptor (Rattus norvegicus, UniProt O35433); test: Inhibition of the current induced by capsaicin in rat DRG cells (whole-cell patch clamp); format: cell-based; conditions: DRG neuron; compound at 10 nM; capsaicin (1 μM) response; primary culture of newborn rat DRG neurons; read-out: % Inhibition by the DRG patch technique
T1 construct: The neurons of the DRG naturally express the TRPV1 receptor; endogenous in cells; host or cells: primary culture of newborn rat dorsal root ganglion (DRG) neurons
T1 sequence (O35433 whole entry): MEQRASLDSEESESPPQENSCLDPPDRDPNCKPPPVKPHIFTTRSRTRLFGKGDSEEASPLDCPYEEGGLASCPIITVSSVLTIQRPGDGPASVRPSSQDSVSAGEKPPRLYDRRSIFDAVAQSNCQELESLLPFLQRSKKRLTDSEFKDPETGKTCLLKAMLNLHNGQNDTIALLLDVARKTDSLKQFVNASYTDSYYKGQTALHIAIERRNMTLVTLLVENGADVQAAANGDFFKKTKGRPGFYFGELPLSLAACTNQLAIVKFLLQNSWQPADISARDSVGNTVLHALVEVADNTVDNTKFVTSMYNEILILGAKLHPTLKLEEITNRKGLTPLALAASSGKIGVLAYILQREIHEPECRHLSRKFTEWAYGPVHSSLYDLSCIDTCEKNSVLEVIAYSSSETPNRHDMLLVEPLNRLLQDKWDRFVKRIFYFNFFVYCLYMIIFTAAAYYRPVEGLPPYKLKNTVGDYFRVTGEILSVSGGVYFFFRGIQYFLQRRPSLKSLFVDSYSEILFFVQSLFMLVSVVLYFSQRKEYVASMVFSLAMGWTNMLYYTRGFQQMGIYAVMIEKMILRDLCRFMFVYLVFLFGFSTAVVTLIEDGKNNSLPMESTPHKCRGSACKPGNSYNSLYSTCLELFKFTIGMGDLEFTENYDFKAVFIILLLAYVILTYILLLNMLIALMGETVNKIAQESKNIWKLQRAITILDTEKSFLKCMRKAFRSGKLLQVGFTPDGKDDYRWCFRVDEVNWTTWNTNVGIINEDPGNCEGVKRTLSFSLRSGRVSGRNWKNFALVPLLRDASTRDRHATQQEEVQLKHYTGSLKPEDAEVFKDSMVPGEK
Procedure: Test of the Inhibition of the Current Induced by Capsaicin with Regard to Rat DRGs
Primary Culture of Rat Dorsal Root Ganglion (DRG) Cells:
The neurons of the DRG naturally express the TRPV1 receptor.
Primary cultures of DRGs of newborn rats are prepared from 1-day-old rats. Briefly, after dissection, the ganglions are trypsinized and their cells dissociated mechanically by gentle trituration. […]
The measurement chambers (volume 800 μl) comprising the cell preparation are placed on the stage of an inverted microscope (Olympus IMT2) equipped with Hoffman optics (Modulation Contrast, New York) and are observed at a magnification of 400×. […] The overall currents (membrane potential set at −60 mV) are recorded with an Axopatch 1D amplifier (Axon Instruments, Foster City, Calif.) connected to a PC controlled by Pclamp8 software (Axon Instruments). The current plots are recorded on paper and simultaneously recorded digitally (sampling frequency 15 to 25 Hz) and acquired on the hard disk of the PC.
The application of a micromolar capsaicin solution produces an incoming cationic current with regard to the DRG cells (voltage set at −70 mV). […] The results are expressed as % of inhibition of the control capsaicin response.

Row | inhibition at 0.01 µM [%] | SMILES
1 | 70 | Cc1cc(C)nc(-n2c(C(=O)Nc3ccc4c(c3)nc(C)n4C)cc3cc(F)ccc32)c1 [Compound No. 10, N-(1,2-Dimethyl-1H-benzimidazol-5-yl)-5-fluoro-1-(4,6-dimethylpyridin-2-yl)-1H-indole-2-carboxamide]

test system: not given; test: not given; conditions: not given

Row | melting point [°C] | SMILES
2 | 203 to 205 | Cn1ccc2cc(NC(=O)c3cc4cc(F)ccc4n3-c3cccnc3)ccc21 [Compound No. 2, N-(1-methyl-1H-indol-5-yl)-5-fluoro-1-(pyridin-3-yl)-1H-indole-2-carboxamide]
3 | 260 to 261 | Cc1nc2cc(NC(=O)c3cc4cc(F)ccc4n3-c3ccccn3)ccc2n1C [Compound No. 5, N-(1,2-Dimethyl-1H-benzimidazol-5-yl)-5-fluoro-1-(pyridin-2-yl)-1H-indole-2-carboxamide]
4 | 198 to 199 | Cc1cc(C)nc(-n2c(C(=O)Nc3ccc4c(ccn4C)c3)cc3cc(F)ccc32)c1 [Compound No. 11, N-(1-Methyl-1H-indol-5-yl)-5-fluoro-1-(4,6-dimethylpyridin-2-yl)-1H-indole-2-carboxamide]
5 | 276 to 279 | Cc1ccnc(-n2c(C(=O)Nc3ccc4c(ccn4C)c3)cc3cc(F)ccc32)c1 [Compound No. 7, N-(1-methyl-1H-indol-5-yl)-5-fluoro-1-(4-methylpyridin-2-yl)-1H-indole-2-carboxamide]
6 | 139 to 141 | Cc1nc2cc(NC(=O)c3cc4cc(F)ccc4n3-c3cccnc3)ccc2n1C [Compound No. 6, N-(1,2-Dimethyl-1H-benzimidazol-5-yl)-5-fluoro-1-(pyridin-3-yl)-1H-indole-2-carboxamide]
7 | 226 to 229 | Cc1nc2cc(NC(=O)c3cc4cc(F)ccc4n3-c3ccncc3)ccc2n1C [Compound No. 4, N-(1,2-Dimethyl-1H-benzimidazol-5-yl)-5-fluoro-1-(pyridin-4-yl)-1H-indole-2-carboxamide]
8 | 213 to 216 | Cc1cc(-n2c(C(=O)Nc3ccc4c(ccn4C)c3)cc3cc(F)ccc32)ccn1 [Compound No. 9, N-(1-Methyl-1H-indol-5-yl)-5-fluoro-1-(2-methylpyridin-4-yl)-1H-indole-2-carboxamide]
9 | 210 to 211 | Cn1ccc2cc(NC(=O)c3cc4cc(F)ccc4n3-c3ccccn3)ccc21 [Compound No. 3, N-(1-Methyl-1H-indol-5-yl)-5-fluoro-1-(pyridin-2-yl)-1H-indole-2-carboxamide]
10 | 270 to 278 | Cc1ccnc(-n2c(C(=O)Nc3ccc4c(c3)nc(C)n4C)cc3cc(F)ccc32)c1 [Compound No. 8, N-(1,2-Dimethyl-1H-benzimidazol-5-yl)-5-fluoro-1-(4-methylpyridin-2-yl)-1H-indole-2-carboxamide]
